The source of these data is US9868707B2, “Small molecule agonists of neurotensin receptor 1” (SANFORD-BURNHAM MEDICAL RESEARCH INSTITUTE, priority 2012, dated 2018).

The target in the test is NTR1 (Homo sapiens, UniProt P30989). The test is described as follows: NTR1 high-content imaging (HCS) dose response, NTR1-U2OS cells. To be noted: n = 4 unless otherwise noted; for EC50: Ave. ± S.E.M., read-out: HCS NTR1 Potency EC50; for Emax: read-out: HCS NTR1 Potency Emax. More on the design: host or cells: U2OS osteosarcoma. Format: cell-based. From the text:
The cell lines utilized in the high-content imaging assays, which include the NTR1-, NTR2-, and GPR35-U2OS osteosarcomas, were obtained from the laboratory of Dr. Lawrence Barak at the Duke University Medical Center. The media used in the culture of the cell lines, as well as the assays themselves, consisted of Minimum Essential Medium (15-010-CM) and L-glutamine (25-005-CL) from Cellgro/Mediatech (Manassas, Va.), fetal bovine serum (SH30396.03) from Hyclone (Logan, Utah), penicillin-streptomycin solution (PS-20) from Omega Scientific in Tarzana, Calif., G418 (ant-gn-1) from Invivogen (San Diego, Calif.), and zeocin (R250-01) from Invitrogen (Carlsbad, Calif.). Cell lines were cultured in T225 tissue culture flasks (431082) supplied by Corning (Corning, N.Y.). Additional reagents employed include Dulbecco's Phosphate-Buffered Saline (DPBS) (21-031CV) from Cellgro/Mediatech, Trypsin-EDTA 0.05% (25300) from Invitrogen, paraformaldehyde (30528954) from Acros Organics (Geel, Belgium), Hoechst 33342 (H3570) from Invitrogen. The high-content assays were run in 1536-well plates (29326) supplied by Aurora Biotechnology (Poway, Calif.) and utilized aluminum plate seals (T592100) from E&K Scientific (Santa Clara, Calif.).
The neurotensin 1 peptide (N6383) from Sigma-Aldrich (St. Louis, Mo.) was used as a positive control in the NTR1 primary HCS assay. For the NTR2 selectivity assay, the non-specific, small molecule 3-(4-fluorophenyl)-7,8-dimethoxy-5-(4-methylbenzyl)-5H-pyrazolo[4,3-c]quinolone which was synthesized internally was used as a positive control. The GPR35 selectivity screen utilized zaprinast (ALX430-020-M010) from Alexis Biochemicals (Farmingdale, N.Y.) as a control.
The high-content imaging based NTR1 primary screen in 1536-well format was utilized to assay the MLSMR library of chemical entities in the following manner. On day one, 4 uL of a cell suspension containing 350,000 NTR1-U2OS cells per mL is added to each well of a 1536-well assay plate. Cells are plated in MEM medium containing 2.5% Fetal Bovine Serum, 1% Penicillin/Streptomycin solution, 1% L-Glutamine, 400 ug/mL G418, and 200 ug/mL Zeocin. The assay plates are then incubated overnight at 37° C., under 5% CO2. Following the overnight incubation, a volume of 60 nL of the compounds at 2 mM in DMSO (final 20 μM, 1% DMSO) was transferred to columns 5-48 of the assay plates using a LabCyte Echo Liquid Handler. Next, 60 nL of DMSO were dispensed to columns 1-4, which served as the positive and neutral control wells. […] The assay plates were centrifuged on an Eppendorf 5810 centrifuge at 1000 rpm for 1 min to ensure even liquid levels in the wells of the assay plates. The assay plates were then returned to the incubator for 1 hour. Following the hour-long incubation at 37° C., the cells in each well were fixed with 4 uL of 6% paraformaldehyde added with a Multidrop Combi. The assay plates were centrifuged as before and incubated at room temperature for 1 hour. On the Kalypsys, plates were then aspirated down to 2.5 uL per well and washed twice with 11 uL per well of DPBS, followed by a final aspiration to 2.5 uL per well. On the Combi dispenser, 5 uL of 5 ug/mL Hoechst 33342 diluted in DPBS was added to each well of assay plates. The plates were again centrifuged as previously described, sealed, and incubated for at least 1 hour prior to being loaded on a PerkinElmer Opera QEHS.
Image acquisition was performed with a 45 plate capacity loader/stacker and the following settings: 40×0.6 NA air objective, acquisition camera set to 2-by-2 binning for an image size of 688 by 512 pixels, beta-arrestin-GFP acquired using 488 nm laser excitation and 540/75 nm emission filters, DAPI (nuclei) using 365 nm Xenon lamp excitation and 450/50 nm emission filters, 3 fields per well. Image analysis was performed using the Acapella Spot Detection Algorithm. For analysis settings and the metrics employed in the data analyses, please refer to supplemental information.

NTR1, sequence (P30989 whole entry, species assumed): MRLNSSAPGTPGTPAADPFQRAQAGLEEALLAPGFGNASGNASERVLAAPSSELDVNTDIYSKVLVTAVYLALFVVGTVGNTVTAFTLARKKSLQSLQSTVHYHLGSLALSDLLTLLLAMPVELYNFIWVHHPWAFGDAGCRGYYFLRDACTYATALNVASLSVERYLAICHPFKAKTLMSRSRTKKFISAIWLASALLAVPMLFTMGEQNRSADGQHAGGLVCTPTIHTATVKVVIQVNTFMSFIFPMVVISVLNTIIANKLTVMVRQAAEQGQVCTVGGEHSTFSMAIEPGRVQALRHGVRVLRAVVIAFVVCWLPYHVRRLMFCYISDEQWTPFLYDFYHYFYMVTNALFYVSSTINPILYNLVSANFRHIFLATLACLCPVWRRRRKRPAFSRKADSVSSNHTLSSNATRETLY

For `COc1cc2nc(C3CCC3)nc(N3CCN(c4ccccn4)CC3)c2cc1OC` [Compound 326, 2-cyclobutyl-6,7-dimethoxy-4-(4-(pyridin-2-yl)piperazin-1-yl)quinazoline], the EC50 came out at 25.5 ± 1.7 µM and the Emax is 91.4%.

In the case of `COc1ccccc1N1CCN(c2nc(C3CCC3)nc3ccccc23)CC1` [Compound 336, 2-cyclobutyl-4-(4-(2-methoxyphenyl)piperazin-1-yl)quinazoline], the EC50 came to 22.6 ± 3.9 µM and the Emax was 100%.

As for `COc1cc2nc(C3CC3)nc(N3CCN(c4ccccc4Cl)CC3)c2cc1OC` [Compound 340, 4-(4-(2-chlorophenyl)piperazin-1-yl)-2-cyclopropyl-6,7-dimethoxyquinazoline], the EC50 came to 19.8 ± 2.2 µM and the Emax is 100%.

For the compound `COc1cccc(N2CCN(c3nc(C4CCC4)nc4cc(OC)c(OC)cc34)CC2)c1` [Compound 328, 2-cyclobutyl-6,7-dimethoxy-4-(4-(3-methoxyphenyl)piperazin-1-yl)quinazoline], the EC50 amounted to 17.2 ± 1 µM and the Emax was determined as 74.9%.

As for `COc1cc2nc(CCN3CCN(c4ccccc4OC)CC3)nc(N3CCN(c4ccccc4OC)CC3)c2cc1OC` [Compound 319, 6,7-dimethoxy-4-(4-(2-methoxyphenyl)piperazin-1-yl)-2-(2-(4-(2-methoxyphenyl)piperazin-1-yl)ethyl)quinazoline], the EC50 was found to be 25.9 ± 13.7 µM and the Emax amounted to 74.3%.

For the compound `COc1ccc2c(N3CCN(c4ccccc4OC)CC3)nc(C3CCC3)nc2c1` [Compound 335, 2-cyclobutyl-7-methoxy-4-(4-(2-methoxyphenyl)piperazin-1-yl)quinazoline], the EC50 came out at 30 µM and the maximal effect (Emax) worked out at 112%.
